What all share (type): cell-based
The test system of experiment [1] is SK-BR-3 (breast cancer, HER2+). Kind of experiment: SRB colorimetric cytotoxicity assay, SK-BR-3. As to conditions: Homo sapiens, SK-BR-3, 72 h. From the text:
(§1) The aim of the assay was to evaluate the in vitro cytostatic (ability to delay or arrest tumor cell growth) or cytotoxic (ability to kill tumor cells) activity of the samples being tested.
(§2) The following human tumor cell lines were obtained from the American Type Culture Collection (ATCC): SK-BR-3 (ATCC HB-30), HCC-1954 (ATCC CRL-2338) (both being breast cancer, HER2+), MDA-MB-231 (ATCC HTB-26), MCF-7 (ATCC HTB-22) (both being breast cancer, HER2−).
(§3) For SK-BR-3, HCC-1954, MDA-MB-231 and MCF-7 cells, a colorimetric assay using Sulforhodamine B (SRB) was adapted for quantitative measurement of cell growth and cytotoxicity, as described by V. Vichai and K. Kirtikara. In “Sulforhodamine B colorimetric assay for cytotoxicity screening”, Nature Protocols, 2006, 1: 1112-1116. Briefly, cells were seeded in 96-well microtiter plates and allowed to stand for 24 hours in drug-free medium before treatment with vehicle alone or with the tested substances for 72 hours. For quantification, cells were washed twice with phosphate buffered saline (PBS), fixed for 15 min in 1% glutaraldehyde solution, rinsed twice with PBS, stained in 0.4% (w/v) SRB with 1% (v/v) acetic acid solution for 30 min, rinsed several times with 1% acetic acid solution and air-dried.
(§4) Cell survival was expressed in all cases as percentage of control, untreated cell survival. […]

In experiment [2] the test system is HCC-1954 (breast cancer, HER2+). The experiment is described as follows: SRB colorimetric cytotoxicity assay, HCC-1954. As to conditions: Homo sapiens, HCC1954, 72 h.
Text: as §1, §2, §3, §4

Experiment [3] has as its system MDA-MB-231 (breast cancer, HER2−). The experiment is described as follows: SRB colorimetric cytotoxicity assay, MDA-MB-231. Conditions: Homo sapiens, MDA-MB-231, 72 h.
Text: as §1, §2, §3, §4

Experiment [4] relates to MCF-7 (breast cancer, HER2−). The experiment is described as follows: SRB colorimetric cytotoxicity assay, MCF-7. Conditions: Homo sapiens, MCF7, 72 h.
Text: as §1, §2, §3, §4

“And” between values parts separate entries of the source, which are not always exact repeats. Equal entries are not always repeated.

What is called IC50 is the midpoint of a concentration-inhibition curve. The low end stands for higher potency, the high end for lower potency.

`C=C1C[C@](OC)([C@H](O)C(=O)N[C@@H](OC)[C@@H]2C[C@@H](O)C(C)(C)[C@@H](C[C@@H](COC(=O)NCCCNC(=O)CCCCCN3C(=O)C=CC3=O)OC)O2)O[C@H](C)[C@@H]1C` (racemic) [DL-2]: the IC50 was 0.108 µg/mL and 138 nM in experiment [1]; 0.076 µg/mL and 97.1 nM in experiment [2]; 0.0652 µg/mL and 83.3 nM in experiment [3]; 0.0759 µg/mL and 97 nM in experiment [4].

The values are drawn from patent publication US20230218774A1, “DRUG ANTIBODY CONJUGATES” (PHARMA MAR, S.A., priority 2019, published 2023).
